The results in this text go back to US20220313780A1, “METHODS AND COMPOSITIONS FOR TREATING INFLAMMATORY CONDITIONS” (THE SCRIPPS RESEARCH INSTITUTE, priority 2019, published 2022).

No end group written: not given here.

The assay deals with caspase 1. Put plainly: Caspase 1 activity assay in PMA-differentiated THP1 cells treated with LPS and ATP. Type of assay: cell-based, human. The following applies: for anti-inflammatory activities relative to that of TR47: summary statement on exemplified TR47 fragments and variants. The procedure:
THP1-null (THP1) cells were plated at a final concentration of 1×10^6/mL in 96 well plates and incubated with PMA (0.5 μM) for 3 hours 37° C. in supplemented RPMI. Media was subsequently changed every 24 hours for 3 days. Various subsets of wells were selected and cells were treated for 60 minutes at 37° C. in serum-free RPMI with: (A) APC (4 μg/mL), TR47 (50 μM-2 nM), scrTR47 (50 μM), SFLLRN (50 μM), TFLLRN (50 μM); (B) P3R (50 μM-500 nM), P3K (50 μM); (C) APC (4 or 1 μg/mL), TR47 (8 nM), P3R (500 nM) or TR47+P3R (8 nM and 500 nM, respectively); (D) TR47 (0-128 nM) (●)±P3R (500 nM) (□); (E) P3R (0-500 nM) (●)±TR47 (1 nM) (□). Following DPBS wash, cells were incubated with LPS (1 μg/mL) for 3 hours at 37° C. in serum-free RPMI. After a DPBS wash, cells were incubated with ATP (5 mM) in the presence or absence of 10 μM YVAD (caspase 1 inhibitor) or 2.5 μM ZVAD (pan-caspase inhibitor) for 45 minutes at 37° C., prior to performing the caspase 1 activity assay following manufacturer's directions measuring luminescence (relative luminescent units, RLU). (D & E) Experimental caspase 1 activity was normalized to YVAD (caspase 1 inhibitor) luminescence units. (A-E) Data points represent mean±S.D. of at least 3 independent experiments. *P<0.05 (vs. LPS+ATP); #P<0.05 (vs. LPS+ATP & APC, TR47 or P3R); **P<0.005 (vs. LPS+ATP & TR47+500 nM P3R); n.s. not significant.
THP1 cells were plated at a final concentration of 1×10^6/mL in 96 well plates and incubated with PMA (0.5 μM) for 3 hours 37° C. in supplemented RPMI. Media was subsequently changed every 24 hours for 3 days. Selected wells were treated with APC (4 μg/mL), (A) 50 μM or (B) 2 μM of P3R, P3Rm, P3R 51-65, P3R 51-59, P3R 54-59 or P3R 59-65 for 1 hour, washed with DPBS, and incubated with LPS (1 μg/mL) for 3 hours at 37° C. in serum-free RPMI. Cells were washed with DPBS and incubated with ATP (5 mM) in the presence or absence of 10 μM YVAD (caspase 1 inhibitor; C1i) or 2.5 μM ZVAD (pan-caspase inhibitor; pCi) for 45 minutes at 37° C., prior to performing the caspase 1 activity assay following manufacturer's directions measuring luminescence (relative luminescent units, RLU). (C) Diagram showing the PAR3 sequence, peptide sequences and relative (anti-inflammatory) activity. These include sequences of P3R (SEQ ID NO:4), P3Rm (SEQ ID NO:8), P3R 51-65 (SEQ ID NO:9), P3R 51-59 (SEQ ID NO:10), P3R 54-59 (SEQ ID NO:54) and P3R 59-65 (SEQ ID NO:55).
THP1 cells were plated at a final concentration of 1×10^6/mL in 96 well plates and incubated with PMA (0.5 μM) for 3 hours 37° C. in supplemented RPMI. Media was subsequently changed every 24 hours for 3 days. Selected wells were treated with APC (4 μg/mL), TR47, in (A) 9-mer (TR47 9-mer; NPNDKYEPF (SEQ ID NO:36)) or Ac-TR47 (Acylated TR47) at either 50 μM or 10 nM or (B) 50 μM of 16-mer-TR47, 8-mer-TR47, 6-mer-TR47, TR47 N−1, TR47 N−2, TR47 N−5, TR47AQ, TR47AD, TR47AA or TR48-54 for 1 hour, washed with DPBS, and incubated with LPS (1 μg/mL) for 3 hours at 37° C. in serum-free RPMI. Cells were washed with DPBS and incubated with ATP (5 mM) in the presence or absence of 10 μM YVAD (caspase 1 inhibitor; C1i) or 2.5 μM ZVAD (pan-caspase inhibitor; pCi) for 45 minutes at 37° C., prior to performing the caspase 1 activity assay following manufacturer's directions measuring luminescence (relative luminescent units, RLU). #P<0.001 (vs. LPS+ATP), **P<0.005 (vs. LPS+ATP), * (P<0.05 vs. LPS+ATP). (C) Diagram showing the PAR1 sequence, peptide sequences and relative (anti-inflammatory) activity. These include sequences of TR47 (SEQ ID NO:7), Ac-TR47 (SEQ ID NO:56), 16-mer-TR47 (SEQ ID NO:43), 9-mer-TR47 (SEQ ID NO:36), 8-mer-TR47 (SEQ ID NO:35), 6-mer-TR47 (SEQ ID NO:33), TR47 N−1 (SEQ ID NO:47), TR47 N−2 (SEQ ID NO:51), TR47 N−5 (SEQ ID NO:48), TR47AQ (SEQ ID NO:49), TR47AD (SEQ ID NO:52), TR47AA (SEQ ID NO:50) and TR48-54 (SEQ ID NO:53). […]

Where [1] appears, read: peptide 50 μM for 60 min before LPS (1 μg/mL) and ATP (5 mM), THP1 cells.

Take APNDKYEPFWEDEEKNESGL [TR47ΔA]: the “anti-inflammatory activities relative to that of TR47” value was “maintain substantial anti-inflammatory activities relative to that of TR47”. Besides, the “caspase 1 activity” value under setting [1] is recorded as “similarly reduced caspase 1 activity”. Consider YEPFWEDEEKNESGL [TR47 N−5], for which the “anti-inflammatory activities relative to that of TR47” value was “maintain substantial anti-inflammatory activities relative to that of TR47”. In addition, under setting [1], the “caspase 1 activity” value is “a reduction in caspase 1 activity was observed”. As for SFLLRN [reference compound], the “caspase 1 activity” value under setting [1] is listed as “neither a scrambled TR47 nor the peptides, SFLLRN or TFLLRN which resemble the novel N-terminal amino acid sequence generated by thrombin's PAR1 cleavage at Arg41 had any effect on caspase 1 activity”.

In the case of “P3R 54-59: fragment of PAR3-derived peptide P3R, residues 54-59 (SALEGW; UniProt O00254 54-59, looked up, fragment)”, under setting [1], the “caspase 1 activity” value is recorded as “only partially reduced caspase 1 activity”.

Turning to NDKYEPFWEDEEKNESGL [TR47 N−2], the “caspase 1 activity” value under setting [1] is reported as “a loss in inhibition of caspase 1 activity”.

In the case of NPNDKYEP [8-mer TR47], the “anti-inflammatory activities relative to that of TR47” value is recorded as “maintain substantive anti-inflammatory activities relative to that of TR47”. Also, the “caspase 1 activity” value under setting [1] is recorded as “significantly reduced caspase 1 activity”. Consider `CC(C)(O)c1coc(S(=O)(=O)NC(=O)Nc2c3c(cc4c2CCC4)CCC3)c1` [MCC950, reference compound], for which, where the note is “NLRP3 inhibitor MCC950 10 μM for 30 minutes after LPS, THP1-null cells treated with APC, TR47 or P3R”, the “caspase 1 activity” value is on record as “a significant reduction in caspase 1 activity across all treatments tested”. On to “TR48-54: truncated TR-peptide, removing one amino acid from the N-terminus and part of the C-terminus (FEEFPFS; UniProt O00254 48-54, looked up, fragment)”, for which, under setting [1], the “caspase 1 activity” value is “did not reduce caspase 1 activity”. With NPNDKYEPF [9-mer], the “anti-inflammatory activities relative to that of TR47” value is “maintain substantive anti-inflammatory activities relative to that of TR47”. Moreover, under setting [1], the “caspase 1 activity” value is “reduced caspase 1 activity similar to the 20-mer TR47”. Also, the “anti-inflammatory effect (caspase-1 activity)” value (“anti-inflammatory effect” for short) (peptide at 200 nM) is recorded as “neither the isolated PAR1-derived peptide nor the isolated PAR3-derived peptide had an any anti-inflammatory effect”. Further, under “peptide at 500 nM”, the “anti-inflammatory effect” value is given as “alone was anti-inflammatory”. On to NPNDKY [6-mer TR47], for which the “caspase 1 activity” value under setting [1] is given as “lost its inhibitory activity”. Regarding GAPPNSFEEFPFS [P3Rm], where the note is “P3Rm (0 or 16 nM) combined with TR47 (1 nM), FIG. 6A”, the “synergistic anti-inflammatory activity (caspase 1 activity)” value is on record as “synergy observed”. The “caspase 1 activity” value by setting is: (peptide 2 μM for 1 hour before LPS and ATP, THP1 cells) “this effect was lost”; under setting [1], “a significant reduction in caspase 1 activity was observed”. For the compound “Ac-TR47: Acylated TR47 (N-terminus of TR47 acylated) (Ac-NPNDKYEPF; also: N-terminal acylation, acyl group not given here)”, the “caspase 1 activity” value under setting [1] is reported as “no reduction in caspase 1 activity was observed”. On the same count and under the same terms, to “P3R 59-65: fragment of PAR3-derived peptide P3R, residues 59-65 (WTGATIT; UniProt O00254 59-65, looked up, fragment)” belongs “only partially reduced caspase 1 activity”. On to FPFSALEGWTGATIT [P3R 51-65], for which the caspase-1 activity result (PAR3 peptide 0 to 16 nM in the presence or absence of 1 nM P1(47-66)) is reported as “only in the presence of 1 nM P1(47-66) was a significant reduction in caspase-1 activity seen”. In addition, the “caspase 1 activity” value (peptide 50 μM for 60 min before LPS (1 μg/mL) and ATP (5 mM), THP1 cells, listed as P3(51-65)) was “alone is anti-inflammatory at relatively high concentrations”. Besides, the “anti-inflammatory effect” value (peptide at 200 nM) is “neither the isolated PAR1-derived peptide nor the isolated PAR3-derived peptide had an any anti-inflammatory effect”.

As to “TFLLRN (SFLLRN; UniProt P25116 42-47, looked up, fragment) [reference compound]”, the “caspase 1 activity” value under setting [1] was “neither a scrambled TR47 nor the peptides, SFLLRN or TFLLRN which resemble the novel N-terminal amino acid sequence generated by thrombin's PAR1 cleavage at Arg41 had any effect on caspase 1 activity”. On to PNDKYEPFWEDEEKNESGL [TR47 N−1], for which the “anti-inflammatory activities relative to that of TR47” value was “maintain substantial anti-inflammatory activities relative to that of TR47”. Further, the “synergistic anti-inflammatory activity (caspase 1 activity)” value (TR47(N−1) (0 or 4 nM) combined with 500 nM P3R, FIG. 6B) is listed as “synergy observed”. Moreover, under setting [1], the “caspase 1 activity” value was “still reduced caspase 1 activity”.

Turning to NPNDKYEPFWEDEEKN [16-mer TR47], the “anti-inflammatory activities relative to that of TR47” value is listed as “maintain substantive anti-inflammatory activities relative to that of TR47”. Also, the “caspase 1 activity” value under setting [1] was “significantly reduced caspase 1 activity”. Regarding QPNDKYEPFWEDEEKNESGL [TR47ΔQ], the “anti-inflammatory activities relative to that of TR47” value is listed as “maintain substantial anti-inflammatory activities relative to that of TR47”. The “caspase 1 activity” value under setting [1] was “similarly reduced caspase 1 activity”.
